According to patent US11939314B2, “Quinolin-2-one derivatives” (MERCK PATENT GMBH, priority 2016, dated 2024):

Key:
[1] = biological target: T1, PDGFRalpha(V561D) (Homo sapiens, UniProt P16234, V561D); test: PDGFRalpha(V561D) assay; assay type: biochemical; conditions: recombinant human PDGFRalpha aa 550-end, 200 μM ATP, 1.4E-06 means 1.4×10^−6, read-out: Inhibition (IC50) of PDGFRα (V561D)
T1 construct: recombinant human PDGFRalpha, amino acids 550end containing the V561 D mutation; 6His (N)
In short: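 Radiometric filter-binding assay: substrate phosphorylation by recombinant N-His-tagged human PDGFRα 550-end V561D was quenched with 3% phosphoric acid after 40 min at room temperature, then counted.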

[2] = biological target: T2, c-Kit(V654A) (Homo sapiens, UniProt P10721, V654A); test: c-Kit(V654A) assay; assay type: biochemical; conditions: recombinant human c-Kit aa 544-end, 200 μM ATP, 1.4E-06 means 1.4×10^−6, read-out: Inhibition (IC50) of c-KIT (V654A)
T2 construct: amino acids 544-end containing the V654A mutation; GST (N)
In short: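 Radiometric filter-binding read-out: substrate 33P incorporation counted by scintillation after P30 filtermat washes in 75 mM phosphoric acid and methanol. Enzyme: N-GST recombinant human c-Kit aa 544-end carrying V654A.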

T2 sequence (P10721 544-976 V654A): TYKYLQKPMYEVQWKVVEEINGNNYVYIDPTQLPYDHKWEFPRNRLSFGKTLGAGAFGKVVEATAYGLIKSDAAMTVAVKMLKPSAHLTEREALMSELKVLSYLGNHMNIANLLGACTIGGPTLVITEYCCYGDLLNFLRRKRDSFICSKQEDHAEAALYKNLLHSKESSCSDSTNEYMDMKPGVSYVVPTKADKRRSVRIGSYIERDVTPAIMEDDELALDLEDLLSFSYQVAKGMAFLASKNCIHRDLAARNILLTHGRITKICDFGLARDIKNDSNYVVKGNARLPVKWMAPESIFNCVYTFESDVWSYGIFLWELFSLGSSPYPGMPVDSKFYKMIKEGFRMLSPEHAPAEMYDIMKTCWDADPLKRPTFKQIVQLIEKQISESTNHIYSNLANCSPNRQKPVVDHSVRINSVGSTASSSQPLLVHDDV
T1 sequence (P16234 550-1089 V561D): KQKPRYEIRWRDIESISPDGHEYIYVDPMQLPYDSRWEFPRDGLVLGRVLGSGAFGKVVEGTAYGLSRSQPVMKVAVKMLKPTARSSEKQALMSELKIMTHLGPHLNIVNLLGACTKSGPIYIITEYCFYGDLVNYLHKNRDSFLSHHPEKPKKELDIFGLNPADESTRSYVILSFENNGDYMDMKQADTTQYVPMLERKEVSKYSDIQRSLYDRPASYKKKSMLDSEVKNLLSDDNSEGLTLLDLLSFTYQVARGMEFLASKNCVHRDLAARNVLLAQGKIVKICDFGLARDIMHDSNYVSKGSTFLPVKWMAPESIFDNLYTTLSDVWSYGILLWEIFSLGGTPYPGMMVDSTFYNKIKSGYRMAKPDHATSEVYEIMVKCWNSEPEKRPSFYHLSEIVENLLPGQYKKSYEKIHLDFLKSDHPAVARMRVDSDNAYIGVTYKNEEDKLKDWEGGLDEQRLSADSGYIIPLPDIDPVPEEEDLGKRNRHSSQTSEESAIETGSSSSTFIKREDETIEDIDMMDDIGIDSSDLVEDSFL

Row | IC50 [1] [nM] | IC50 [2] [nM] | SMILES
1 | 0.91 | 94 | CO[C@@H]1CN(C(=O)c2ccc(-n3cc(-c4cc5cc(F)ccc5[nH]c4=O)nn3)cc2)C[C@H]1OC [A263, 3-{1-[4-((3R,4R)-3,4-dimethoxy-pyrrolidine-1-carbonyl)-phenyl]-1H-[1,2,3]triazol-4-yl}-6-fluoro-1H-quinolin-2-one]
2 | 1.2 | 75 | CO[C@H]1CN(C(=O)c2ccc(-n3cc(-c4cc5cc(F)ccc5[nH]c4=O)nn3)cc2)C[C@@H]1OC [A264, 3-{1-[4-((3S,4S)-3,4-dimethoxy-pyrrolidine-1-carbonyl)-phenyl]-1H-[1,2,3]triazol-4-yl}-6-fluoro-1H-quinolin-2-one]
3 | 1.6 | 49 | O=C(c1ccc(-n2cc(-c3cc4cc(F)ccc4[nH]c3=O)nn2)cc1)N1CC[C@H](F)C1 [A265, 6-fluoro-3-{1-[4-((S)-3-fluoro-pyrrolidine-1-carbonyl)-phenyl]-1H-[1,2,3]triazol-4-yl}-1H-quinolin-2-one]
4 | 1.1 | 40 | O=C(c1ccc(-n2cc(-c3cc4cc(Cl)ccc4[nH]c3=O)nn2)cc1)N1CC[C@H](F)C1 [A266, 6-chloro-3-{1-[4-((S)-3-fluoro-pyrrolidine-1-carbonyl)-phenyl]-1H-[1,2,3]triazol-4-yl}-1H-quinolin-2-one]
5 | 1.4 | 17 | O=C(c1ccc(-n2cc(-c3cc4cc(F)ccc4[nH]c3=O)nn2)cc1)N1CCC(F)(F)C1 [A267, 3-{1-[4-(3,3-difluoro-pyrrolidine-1-carbonyl)-phenyl]-1H-[1,2,3]triazol-4-yl}-6-fluoro-1H-quinolin-2-one]
6 | 0.67 | 16 | O=C(c1ccc(-n2cc(-c3cc4cc(Cl)ccc4[nH]c3=O)nn2)cc1)N1CCC(F)(F)C1 [A268, 6-chloro-3-{1-[4-(3,3-difluoro-pyrrolidine-1-carbonyl)-phenyl]-1H-[1,2,3]triazol-4-yl}-1H-quinolin-2-one]
7 | 1.5 | 31 | O=C(c1ccc(-n2cc(-c3cc4cc(F)ccc4[nH]c3=O)nn2)cc1)N1CC[C@@H](F)C1 [A269, 6-fluoro-3-{1-[4-((R)-3-fluoro-pyrrolidine-1-carbonyl)-phenyl]-1H-[1,2,3]triazol-4-yl}-1H-quinolin-2-one]
8 | 0.2 | 26 | O=C(c1ccc(-n2cc(-c3cc4cc(Cl)ccc4[nH]c3=O)nn2)cc1)N1CC[C@@H](F)C1 [A270, 6-chloro-3-{1-[4-((R)-3-fluoro-pyrrolidine-1-carbonyl)-phenyl]-1H-[1,2,3]triazol-4-yl}-1H-quinolin-2-one]
9 | 0.51 | 50 | CO[C@@H]1CN(C(=O)c2ccc(-n3cc(-c4cc5cc(Cl)ccc5[nH]c4=O)nn3)cc2)C[C@H]1OC [A271, 6-chloro-3-{1-[4-((3R,4R)-3,4-dimethoxy-pyrrolidine-1-carbonyl)-phenyl]-1H-[1,2,3]triazol-4-yl}-1H-quinolin-2-one]
10 | 0.89 | 48 | CO[C@H]1CN(C(=O)c2ccc(-n3cc(-c4cc5cc(Cl)ccc5[nH]c4=O)nn3)cc2)C[C@@H]1OC [A272, 6-chloro-3-{1-[4-((3S,4S)-3,4-dimethoxy-pyrrolidine-1-carbonyl)-phenyl]-1H-[1,2,3]triazol-4-yl}-1H-quinolin-2-one]
11 | 4.1 | 40 | O=C(c1ccc(-n2cc(-c3cc4cc(F)ccc4[nH]c3=O)nn2)cc1)N1CCCC1 [A273, 6-fluoro-3-{1-[4-(pyrrolidine-1-carbonyl)-phenyl]-1H-[1,2,3]triazol-4-yl}-1H-quinolin-2-one]
12 | 3.3 | 61 | O=C(c1ccc(-n2cc(-c3cc4cc(F)ccc4[nH]c3=O)nn2)cc1)N1C[C@@H](O)CO1 [A274, 6-fluoro-3-{1-[4-((R)-4-hydroxy-isoxazolidine-2-carbonyl)-phenyl]-1H-[1,2,3]triazol-4-yl}-1H-quinolin-2-one]
13 | 0.21 | 45 | O=C(c1ccc(-n2cc(-c3cc4cc(Cl)ccc4[nH]c3=O)nn2)cc1)N1C[C@@H](O)CO1 [A275, 6-chloro-3-{1-[4-((R)-4-hydroxy-isoxazolidine-2-carbonyl)-phenyl]-1H-[1,2,3]triazol-4-yl}-1H-quinolin-2-one]
14 | 1.4 | 54 | O=C(c1ccc(-n2cc(-c3cc4cc(F)ccc4[nH]c3=O)nn2)cc1)N1C[C@H](O)CO1 [A276, 6-fluoro-3-{1-[4-((S)-4-hydroxy-isoxazolidine-2-carbonyl)-phenyl]-1H-[1,2,3]triazol-4-yl}-1H-quinolin-2-one]
15 | 2.6 | 30 | O=C(c1ccc(-n2cc(-c3cc4cc(Cl)ccc4[nH]c3=O)nn2)cc1)N1C[C@H](O)CO1 [A277, 6-chloro-3-{1-[4-((S)-4-hydroxy-isoxazolidine-2-carbonyl)-phenyl]-1H-[1,2,3]triazol-4-yl}-1H-quinolin-2-one]
16 | 1.5 | 17 | O=C(c1ccc(-n2cc(-c3cc4cc(F)ccc4[nH]c3=O)nn2)cc1)N1CCC[C@@H]1CN1CCCC1 [A278, 6-fluoro-3-{1-[4-((R)-2-pyrrolidin-1-ylmethyl-pyrrolidine-1-carbonyl)-phenyl]-1H-[1,2,3]triazol-4-yl}-1H-quinolin-2-one]
17 | 0.72 | 14 | O=C(c1ccc(-n2cc(-c3cc4cc(F)ccc4[nH]c3=O)nn2)cc1)N1CCC[C@H]1CN1CCCC1 [A279, 6-fluoro-3-{1-[4-((S)-2-pyrrolidin-1-ylmethyl-pyrrolidine-1-carbonyl)-phenyl]-1H-[1,2,3]triazol-4-yl}-1H-quinolin-2-one]
18 | 53 | 77 | O=C(c1ccc(-n2cc(-c3cc4cc(F)ccc4[nH]c3=O)nn2)cc1)N1CCC1 [A280, 3-{1-[4-(azetidine-1-carbonyl)-phenyl]-1H-[1,2,3]triazol-4-yl}-6-fluoro-1H-quinolin-2-one]
19 | 10 | 57 | CN1CCN(C(=O)C2CCCN2C(=O)c2ccc(-n3cc(-c4cc5cc(F)ccc5[nH]c4=O)nn3)cc2)CC1 (stereo not shown) [A281, 6-fluoro-3-(1-{4-[2-(4-methyl-piperazine-1-carbonyl)-pyrrolidine-1-carbonyl]-phenyl}-1H-[1,2,3]triazol-4-yl)-1H-quinolin-2-one]
20 | 14 | 38 | CN1CCN(C(=O)c2ccc(-n3cc(-c4cc5cc(F)ccc5[nH]c4=O)cn3)cc2)CC1 [A296, 6-fluoro-3-{1-[4-(4-methyl-piperazine-1-carbonyl)-phenyl]-1H-pyrazol-4-yl}-1H-quinolin-2-one]
21 | 240 | 66 | CO[C@H]1CCN(C(=O)c2ccc(-n3cc(-c4cc5cc(F)ccc5[nH]c4=O)cn3)cc2)C1 [A297, 6-fluoro-3-{1-[4-((S)-3-methoxy-pyrrolidine-1-carbonyl)-phenyl]-1H-pyrazol-4-yl}-1H-quinolin-2-one]
22 | 21 | 41 | CO[C@@H]1CCN(C(=O)c2ccc(-n3cc(-c4cc5cc(F)ccc5[nH]c4=O)cn3)cc2)C1 [A298, 6-fluoro-3-{1-[4-((R)-3-methoxy-pyrrolidine-1-carbonyl)-phenyl]-1H-pyrazol-4-yl}-1H-quinolin-2-one]
23 | 23 | 58 | COCCO[C@H]1CCN(C(=O)c2ccc(-n3cc(-c4cc5cc(F)ccc5[nH]c4=O)cn3)cc2)C1 [A299, 6-fluoro-3-(1-{4-[(S)-3-(2-methoxy-ethoxy)-pyrrolidine-1-carbonyl]-phenyl}-1H-pyrazol-4-yl)-1H-quinolin-2-one]
